Assay [1] deals with Leptosphaeria nodorum (LEPTNO). Briefly: In vitro fungitoxicity of hydrazones with and without copper towards Leptosphaeria nodorum (Example 26). The class given is cell-based. The settings on record: compound 0.05 μg/mL, 72 h at 25° C.; for inhibition of growth at 0.05 µg/mL: Parastagonospora nodorum, 72 h, copper-minus medium, read-out: LEPTNO % Inhn. Minus Copper Observed; for LEPTNO % Inhn. Plus Copper Observed: copper-plus medium (CuCl2.2H2O).

Assay [2] deals with Phytophthora infestans. The class given is in vivo, Phytophthora infestans on tomato. As to conditions: hydrazone 50 ppm + 50 μM CuCl2.2H2O, applied 24 h before inoculation, assessed 7 days after inoculation, tomato.

Turning to `CN(C)c1ccc(C(=O)N/N=C/c2cc(Cl)cc(Cl)c2O)cc1` [Example 103], in assay [1], the inhibition of growth at 0.05 µg/mL was 17.9% and the “LEPTNO % Inhn. Plus Copper Observed” value stood at 98.1%. Also, the “TLB % Control” value in assay [2] is 63.2%.

Turning to `CCOc1ccc(C(=O)N/N=C/c2cc(Br)cc(Br)c2O)cc1` [Example 104], in assay [1], the inhibition of growth at 0.05 µg/mL is 27.7% and the “LEPTNO % Inhn. Plus Copper Observed” value is 98.2%. In addition, the “TLB % Control” value in assay [2] is given as 70.2%.

On to `O=C(N/N=C/c1cc(Br)cc(Br)c1O)c1ccc(OC(F)(F)F)cc1` [Example 109], for which, in assay [1], the inhibition of growth at 0.05 µg/mL was 27.8% and the “LEPTNO % Inhn. Plus Copper Observed” value is on record as 98.3%. In addition, the “TLB % Control” value in assay [2] was determined as 89.1%.

`O=C(N/N=C/c1cc(Br)cc(Br)c1O)c1ccccc1Cl` [Example 112]: in assay [1], the inhibition of growth at 0.05 µg/mL worked out at 8.1% and the “LEPTNO % Inhn. Plus Copper Observed” value is recorded as 97.8%. Besides, the “TLB % Control” value in assay [2] was determined as 78.2%.

For `O=C(N/N=C/c1cc(Br)cc(Br)c1O)c1cccc(Br)c1` [Example 113], in assay [1], the inhibition of growth at 0.05 µg/mL worked out at 17% and the “LEPTNO % Inhn. Plus Copper Observed” value worked out at 98.0%. For the same compound, in assay [2], the “TLB % Control” value came out at 94.7%.

With `COc1ccccc1C(=O)N/N=C/c1cc(Br)cc(Br)c1O` [Example 114], in assay [1], the inhibition of growth at 0.05 µg/mL is 0% and the “LEPTNO % Inhn. Plus Copper Observed” value was determined as 36.9%. Also, the “TLB % Control” value in assay [2] stood at 7.5%.

As for `Cc1cccc(C(=O)N/N=C/c2cc(Br)cc(Br)c2O)c1` [Example 115], in assay [1], the inhibition of growth at 0.05 µg/mL is 6.1% and the “LEPTNO % Inhn. Plus Copper Observed” value is recorded as 97.4%. In addition, the “TLB % Control” value in assay [2] worked out at 78.2%.

For `O=C(N/N=C/c1cc(Br)cc(Br)c1O)c1ccccc1F` [Example 116], in assay [1], the inhibition of growth at 0.05 µg/mL worked out at 8.4% and the “LEPTNO % Inhn. Plus Copper Observed” value amounted to 98.2%. In addition, in assay [2], the “TLB % Control” value is 88.8%.

As for `O=C(N/N=C/c1cc(Br)cc(Br)c1O)c1ccc(Br)cc1` [Example 118], in assay [1], the inhibition of growth at 0.05 µg/mL was found to be 10.6% and the “LEPTNO % Inhn. Plus Copper Observed” value is listed as 98.3%. Moreover, the “TLB % Control” value in assay [2] was determined as 85.3%.

Regarding `O=C(N/N=C/c1cc(Br)cc(Br)c1O)c1ccc(Cl)cc1` [Example 120], in assay [1], the inhibition of growth at 0.05 µg/mL came to 19.9% and the “LEPTNO % Inhn. Plus Copper Observed” value is 98.2%. In assay [2], the “TLB % Control” value is on record as 92.6%.

In the case of `O=C(N/N=C/c1cc(Br)cc(Br)c1O)c1cccc(Cl)c1` [Example 122], in assay [1], the inhibition of growth at 0.05 µg/mL is 13.5% and the “LEPTNO % Inhn. Plus Copper Observed” value is given as 98.7%. Further, the “TLB % Control” value in assay [2] was 92.7%.

In the case of `O=C(Cc1ccc(F)cc1)N/N=C/c1cc(Cl)cc(Cl)c1O` [Example 126], in assay [1], the inhibition of growth at 0.05 µg/mL stood at 13.2% and the “LEPTNO % Inhn. Plus Copper Observed” value came to 92.4%. For the same compound, the “TLB % Control” value in assay [2] was 73.0%.

As for `C/C(=N\NC(=O)c1ccccc1[N+](=O)[O-])c1ccccc1O` [Example 127], in assay [1], the inhibition of growth at 0.05 µg/mL stood at 0% and the “LEPTNO % Inhn. Plus Copper Observed” value is reported as 97.1%. Further, the “TLB % Control” value in assay [2] turned out to be 40.0%.

On to `C/C(=N\NC(=O)Cc1ccccc1)c1ccccc1O` [Example 128], for which, in assay [1], the inhibition of growth at 0.05 µg/mL is 10.8% and the “LEPTNO % Inhn. Plus Copper Observed” value is given as 88.6%. Moreover, in assay [2], the “TLB % Control” value was 38.0%.

`CC/C(=N\NC(=O)c1ccccc1)c1ccccc1O` [Example 130]: in assay [1], the inhibition of growth at 0.05 µg/mL was determined as 1.2% and the “LEPTNO % Inhn. Plus Copper Observed” value is on record as 98.6%. The “TLB % Control” value in assay [2] was 50.8%.

`C/C(=N\NC(=O)c1ccc(Br)cc1)c1cc(Cl)cc(Cl)c1O` [Example 139]: in assay [1], the inhibition of growth at 0.05 µg/mL was found to be 1.7% and the “LEPTNO % Inhn. Plus Copper Observed” value is recorded as 97.1%. In addition, the “TLB % Control” value in assay [2] is on record as 93.0%.

`O=C(N/N=C/c1cc(Br)cc([N+](=O)[O-])c1O)c1ccccc1` [Example 144]: in assay [1], the inhibition of growth at 0.05 µg/mL is 0% and the “LEPTNO % Inhn. Plus Copper Observed” value is given as 98.5%. Moreover, the “TLB % Control” value in assay [2] worked out at 87.0%.

Values taken from US20120010075A1 (priority 2009, published 2012).
